Data set [1] is described as follows: Second study: prevention of weight gain on high fat diet, ITPP in drinking water, 70 days. It is filed as in vivo. The following applies: FIG. 2. Here is the method:
(§1) Experiments were conducted in analogue ways. First, 30 Balb/c-mice, 10 mice in each group, were assessed. Group 1 was a control group; mice were fed with normal mouse food and water for the whole duration of the experiment (120 days). […] Group III was fed with high fat diet, normal food and, instead of normal water, animals drank an ITPP solution for the duration of the experiment of (ITPP). The concentration was 10 g ITPP per liter water, containing no calcium salt, pH˜6.8-7.2).
(§2) The HFD was 235HF (U8955 version 9) casein 20%, corn starch 13%, sucrose 24.3%, cellulose 5%, malto dextrin 2.2%, lard 25%, soja oil 2.5%, mineral 205B SAFE 7%, and vitamine 200 SAFE 1%.
(§3) All food, water, and ITPP were given ad libitum. In 5 days intervals, body weights from each animal were recorded.
As before, in 5 days intervals body weights of the Balb/c-mice were measured.

The nature of data set [2]: First study: prevention of weight gain on high fat diet, ITPP in drinking water, 120 days. It is filed as in vivo. The protocol: as §1, §2, §3
Data set [3] can be described thus: Third study: weight loss of overweight mice on normal food drinking ITPP solution, about 30 days. The conditions noted are these: FIG. 3, normal mouse food, water with ITPP 10 g per liter. It is filed as in vivo, Balb/c-mice. The protocol:
In a third study the group with the 10 mice which had gained weight (˜30%) was divided in two groups (5 animals per cage). For 1 month, one group drank water while the other one drank an ITPP-solution (10 g/L) for about 30 days until the date of observation. The food was normal mouse food as before (pellets from SAFE, France). The body weights of the mice were measured 4 times until the final day.

Where only a bound is given, the exact number is not on record here.

Turning to `O=P1(O)OC2C3OP(=O)(O)OP(=O)(O)OC3C3OP(=O)(O)OP(=O)(O)OC3C2OP(=O)(O)O1` (stereo not drawn) [ITPP, inositol-tripyrophosphate], the “tolerability of ITPP” value in data set [1] (HFD + ITPP 10 g/L in drinking water) is given as “tolerated very well”. The “weight of Balb/c mice” value is on record as below 30 g in data set [1] (HFD/ITPP consumers, 10 g/L in drinking water, 70 days, HFD/water mice ~40 g) and around 30 g in data set [2] (FIG. 1, HFD + ITPP solution 10 g per liter water ad libitum, oral, 70 days after beginning, HFD/water mice ~40 g). The weight gain entry in data set [1] (HFD/ITPP consumers, 70 days, HFD/water mice gained approximately 30%) is given as “did not gain significant weight”. Moreover, the “tolerability of ITPP solution” value in data set [2] (FIG. 1, HFD + ITPP solution 10 g/L ad libitum, oral) was “well tolerated”. Also, the “first day with significant differences in weight, HFD/water versus HFD/ITPP” value in data set [2] (HFD + ITPP in water versus HFD + water) amounted to 10 days. In data set [2] (HFD + ITPP in water, whole period of the experiment, compared with normal-food control group), the “weight increase of ITPP drinking group on HFD” value was “did not increase their weight at all”. In addition, in data set [2] (orally offered ITPP solution with HFD, two periods (120 days and 70 days), fur, eyes, vitality normal), the “mortality and general condition” value is on record as “No animal died or was suffering”. The “weight loss versus untreated group” value in data set [3] is “lost considerably more weight than the untreated group”.

Source of the values: US20160067267A1, “MYO-INOSITOL TRISPYROPHOSPHATE AS AN ANTI-OBESITY AGENT” (NormOxys, Inc., priority 2013, published 2016).
